Results: ChEMBL document CHEMBL1201862, “PubChem BioAssay data set” (2004)
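Dose response: 5 concentrations. Exposure: 48 h. Format: 96-well plates. Endpoint: linear interpolation; highest concentration if not reached. GI50 marks 50% less growth.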 The source made the active and inactive calls. No stated cut-off is given here; in the data, active = GI50 up to about 1.1 µM and inactive = higher.

How the values were obtained:
Experiment in all cases: inhibition of tumour cell growth, NCI panel, 48 h
SK-MEL-5 = system: SK-MEL-5
SNB-19 = system: SNB-19
MDA-MB-231 = system: MDA-MB-231
SN12C = system: SN12C
PC-3 = system: PC-3
IGROV-1 = system: IGROV-1
EKVX = system: EKVX
RPMI-8226 = system: RPMI-8226
LOX IMVI = system: LOX IMVI
SK-OV-3 = system: SK-OV-3
M14 = system: M14
SK-MEL-28 = system: SK-MEL-28
UACC-62 = system: UACC-62
K562 = system: K562
A549 = system: A549
SF-268 = system: SF-268
DU-145 = system: DU-145
Hs-578T = system: Hs-578T
U-251 = system: U-251
HOP-92 = system: HOP-92
BT-549 = system: BT-549
HOP-62 = system: HOP-62
MDA-MB-435 = system: MDA-MB-435
CAKI-1 = system: CAKI-1
786-0 = system: 786-0
TK-10 = system: TK-10
NCI-H226 = system: NCI-H226
T47D = system: T47D
SNB-75 = system: SNB-75
HCC 2998 = system: HCC 2998
NCI-H522 = system: NCI-H522
Malme-3M = system: Malme-3M
HCT-116 = system: HCT-116
SF-295 = system: SF-295
NCI-H460 = system: NCI-H460
UACC-257 = system: UACC-257
OVCAR-4 = system: OVCAR-4
MDA-N = system: MDA-N
CCRF-CEM = system: CCRF-CEM
KM12 = system: KM12
HT-29 = system: HT-29
NCI-H23 = system: NCI-H23
COLO 205 = system: COLO 205
OVCAR-3 = system: OVCAR-3
SW-620 = system: SW-620
HCT-15 = system: HCT-15
SK-MEL-2 = system: SK-MEL-2
OVCAR-5 = system: OVCAR-5
ACHN = system: ACHN
UO-31 = system: UO-31
MOLT-4 = system: MOLT-4
SR = system: SR

O=C(N/N=C(\c1ccccc1)c1ccccn1)NC1CCCCC1
GI50 (SK-MEL-5): 40.1 µM (inactive) | GI50 (SNB-19): > 100 µM (inactive) | GI50 (MDA-MB-231): 27.7 µM (inactive) | GI50 (SN12C): 56.5 µM (inactive) | GI50 (PC-3): 56.2 µM (inactive) | GI50 (IGROV-1): 30.6 µM (inactive) | GI50 (EKVX): 41.8 µM (inactive) | GI50 (RPMI-8226): 48.1 µM (inactive) | GI50 (LOX IMVI): 19.4 µM (inactive) | GI50 (SK-OV-3): 45.5 µM (inactive) | GI50 (M14): 30 µM (inactive) | GI50 (SK-MEL-28): > 100 µM (inactive) | GI50 (UACC-62): 38.2 µM (inactive) | GI50 (K562): 5.46 µM (inactive) | GI50 (A549): 46.8 µM (inactive) | GI50 (SF-268): 37.2 µM (inactive) | GI50 (DU-145): 64.6 µM (inactive) | GI50 (Hs-578T): > 100 µM (inactive) | GI50 (U-251): 51.1 µM (inactive) | GI50 (HOP-92): 61.8 µM (inactive) | GI50 (BT-549): 42.4 µM (inactive) | GI50 (HOP-62): 23.4 µM (inactive) | GI50 (MDA-MB-435): > 100 µM (inactive) | GI50 (CAKI-1): 57 µM (inactive) | GI50 (786-0): 63.5 µM (inactive) | GI50 (TK-10): 26.9 µM (inactive) | GI50 (NCI-H226): 41.1 µM (inactive) | GI50 (T47D): 28.6 µM (inactive) | GI50 (SNB-75): > 100 µM (inactive) | GI50 (HCC 2998): 56.4 µM (inactive) | GI50 (NCI-H522): 47.4 µM (inactive) | GI50 (Malme-3M): 38.6 µM (inactive) | GI50 (HCT-116): 55.6 µM (inactive) | GI50 (SF-295): 26.6 µM (inactive) | GI50 (NCI-H460): 48 µM (inactive) | GI50 (UACC-257): > 100 µM (inactive) | GI50 (OVCAR-4): 22.7 µM (inactive) | GI50 (MDA-N): > 100 µM (inactive) | GI50 (CCRF-CEM): 40.8 µM (inactive) | GI50 (KM12): 59.3 µM (inactive) | GI50 (HT-29): 59.2 µM (inactive) | GI50 (NCI-H23): 47.9 µM (inactive) | GI50 (COLO 205): 65 µM (inactive) | GI50 (OVCAR-3): 39.6 µM (inactive) | GI50 (SW-620): 76 µM (inactive) | GI50 (HCT-15): 22.9 µM | GI50 (SK-MEL-2): 82.4 µM (inactive) | GI50 (OVCAR-5): > 100 µM (inactive) | GI50 (ACHN): 44.6 µM (inactive) | GI50 (UO-31): 43.5 µM (inactive) | GI50 (MOLT-4): 41.1 µM (inactive) | GI50 (SR): 72.6 µM (inactive)
